According to patent publication US7662819B2, “Pteridinone derivatives for use as stearoyl CoA desaturase inhibitors” (Gilead Palo Alto, Inc., priority 2007, dated 2010):

Target: T1, stearoyl-CoA desaturase (SCD) (Rattus norvegicus, UniProt P07308)
T1 construct: from tissue; host or cells: liver microsomes of male Sprague Dawley rats, with SCD induced by a carbohydrate-rich diet after fasting/feeding cycles
T1 sequence (P07308 1-358): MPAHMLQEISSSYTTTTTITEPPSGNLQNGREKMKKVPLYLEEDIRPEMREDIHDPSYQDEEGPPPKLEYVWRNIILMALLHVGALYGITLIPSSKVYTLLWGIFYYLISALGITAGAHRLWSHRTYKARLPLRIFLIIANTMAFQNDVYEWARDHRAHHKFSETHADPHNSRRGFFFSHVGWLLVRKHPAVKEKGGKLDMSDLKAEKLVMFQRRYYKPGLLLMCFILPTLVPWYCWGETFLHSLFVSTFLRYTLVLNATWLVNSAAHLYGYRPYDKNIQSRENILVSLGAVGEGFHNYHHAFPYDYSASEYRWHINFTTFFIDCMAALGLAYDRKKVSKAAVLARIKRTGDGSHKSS
Test: SCD assay in rat liver microsomes ([3H]stearoyl CoA desaturation, adapted from Talamo and Bloch)
Type: biochemical
Conditions: rat liver microsomes 0.2 mg/ml assay final, 30 min preincubation, 45 min reaction, room temperature
Text: The identification of compounds of the invention as SCD inhibitors was readily accomplished using the SCD enzyme and microsomal assay procedure described in Talamo and Bloch (1969) Analytical Biochemistry 29:300-304.
The rat liver microsomes were collected according to the procedure described in Ozols (1990) Methods Enzm, 182:225.
Male Spraque Dawley Rats were placed on regimented fasting protocol for one week to stimulate SCD enzymatic activity. 48-hour periods were alternated between feeding and fasting to induce and down-regulate SCD activity with SCD activity being induced via carbohydrate rich diet prior to liver perfusion and collection.
The rats were anesthetized with Isoflurane inhalation anesthetic, the liver perfused with cold phosphate buffered saline (PBS), weighed, and chilled in cold homogenization buffer (250 mM sucrose, 10 mM Tris, 1 mM EDTA, pH 7.6.
The livers were finely minced and placed in homogenization tube. 40 mL of homogenization buffer was added to the homogenization tube and the liver homogenized and centrifuged in a pre-chilled […] for 10 min at 4° C.
Following centrifugation, the supernatant was collected and the pellet removed and discarded. The supernatant was centrifuge at 10,000 G for 35 minutes. Following centrifugation, the supernatant was collect and the pellet discarded. The supernatant was then centrifuged in a pre-chilled 45-Ti rotor at 130,000 G (41,000 RPM) for 90 minutes at 4° C.
The supernatant was then aspirated off and the collected microsomal pellet washed in 25 mL of Glycerol PBS (1×PBS 7.4, 20% Glycerol) and resuspended in 4-5 volumes of Glycerol PBS.
The protein concentration of the microsomal preparation was determined by BCA assay (Pierce) and the microsomes were aliquoted and stored at −80° C.
Biobeads were ground to a smaller size in a mortar and pestle and resuspended in 3.6% TCA. The beads were then filtered through […] mesh.
SCD was determined in the desaturase assay buffer. This assay buffer contained 0.1 M Tris buffer, pH 7.2, 2 mM NADH, 4.8 mM ATP, 0.5 mM CoA, 4.8 mM MgCl2, and 0.1% BSA.
The Procedure for the SCD Assay (Adapted from Talamo and Bloch (1969) Analytical Biochemistry 29:300-304)
1 μl of each compound of Formula I was added to an assay plate by a low volume (0.5-10 μL) multichannel pipette. A DMSO control was also prepared. The microsomes were quickly thawed and added to assay buffer so that a concentration of 0.4 mg/ml was achieved (0.2 mg/ml assay final). 50 μl of the microsome suspension in assay buffer was then added into each well in the compound assay plate, the plate was covered, and the microsomes preincubated with the compounds for 30 minutes on the orbital shaker, 50-75 rpm, at room temperature.
After preincubation, the reaction was initiated by the addition of 50 μl of substrate solution (20 μM Stearoyl CoA, [3H]Stearoyl CoA, 74 nCi) to the preincubated microsomes/compound suspensions in MilliQ (Millipore) H2O. The reaction mixtures were then incubated for 45 minutes on the orbital shaker at 50-75 rpm at room temperature.
The reaction was terminated by the addition of 10 μl of 21% […] (TCA) to the reaction mixture followed incubation on the orbital shaker for 30 minutes at 50-75 rpm at room temperature followed by centrifugation for 5 minutes at 3700 rpm.
50 μl of a 6% Bio-Bead suspension in H2O was added to the reaction mixture and the assay plate was sealed. The Bio-Bead mixture was incubated on the orbital shaker for 1 hour, 100-150 rpm at room temperature, and then the mixture was centrifuged at 2000 g for 5 minutes to pellet the Bio-Beads.
25 μl of the supernatant was harvested from each well and transferred to a detection plate. 100 μl of OptiPhase SuperMix scinitillation cocktail (containing sufficient NaOH to neutralize the TCA) was added and the solutions mixed by vigorous shaking (300-400 rpm) for 5 minutes at room temperature. […]

| IC50 | SMILES |
| --- | --- |
| 10000 nM | CC(=O)NCCn1c(=O)cnc2cnc(NCc3cccc(Cl)c3)nc21 [Compound 25, N-[2-(2-{[(3-chlorophenyl)methyl]amino}-7-oxo-8-hydropteridin-8-yl)ethyl]acetamide] |
| 7800 nM | CC(=O)NCCn1c(=O)c(-c2ccc(Cl)cc2)nc2cnc(NCc3cccc(Cl)c3)nc21 [Compound 26, N-[2-(6-(4-chlorophenyl)-2-{[(3-chlorophenyl)methyl]amino}-7-oxo-8-hydropteridin-8-yl)ethyl]acetamide] |
| 9100 nM | CC(=O)NCCn1c(=O)c(-c2cccnc2)nc2cnc(NCc3cccc(Cl)c3)nc21 [Compound 27, N-[2-(2-{[(3-chlorophenyl)methyl]amino}-7-oxo-6-(3-pyridyl)-8-hydropteridin-8-yl)ethyl]acetamide] |
| 21900 nM | CC(=O)NCCn1c(=O)cnc2cnc(NCc3ccc(Cl)cc3)nc21 [Compound 28, N-[2-(2-{[(4-chlorophenyl)methyl]amino}-7-oxo-8-hydropteridin-8-yl)ethyl]acetamide] |
| 430 nM | COc1ccc(-c2nc3cnc(NCc4ccc(Cl)c(Cl)c4)nc3n(CCNC(=O)c3ccc(F)cc3)c2=O)cc1 [Compound 29, N-[2-(2-{[(3,4-dichlorophenyl)methyl]amino}-6-(4-methoxyphenyl)-7-oxo(8-hydropteridin-8-yl))ethyl](4-fluorophenyl)carboxamide] |
| 3270 nM | COc1ccc(-c2nc3cnc(NCc4ccc(Cl)c(Cl)c4)nc3n(CCNC(=O)c3cccc(C)c3)c2=O)cc1 [Compound 30, N-[2-(2-{[(3,4-dichlorophenyl)methyl]amino}-6-(4-methoxyphenyl)-7-oxo(8-hydropteridin-8-yl))ethyl](3-methylphenyl)carboxamide] |
| 2260 nM | COc1ccc(-c2nc3cnc(NCc4ccc(Cl)c(Cl)c4)nc3n(CCNC(=O)c3ccco3)c2=O)cc1 [Compound 31, N-[2-(2-{[(3,4-dichlorophenyl)methyl]amino}-6-(4-methoxyphenyl)-7-oxo(8-hydropteridin-8-yl))ethyl]-2-furylcarboxamide] |
| 1890 nM | CC(=O)NCCn1c(=O)c(-c2ccc(Cl)cc2)nc2cnc(NCc3ccc(Cl)c(Cl)c3)nc21 [Compound 32, N-[2-(2-{[(3,4-dichlorophenyl)methyl]amino}-6-(4-chlorophenyl)-7-oxo-8-hydropteridin-8-yl)ethyl]acetamide] |
| 1800 nM | CC(=O)NCCn1c(=O)c(-c2ccc(Cl)cc2)nc2cnc(NCc3ccc(F)cc3)nc21 [Compound 33, N-[2-(6-(4-chlorophenyl)-2-{[(4-fluorophenyl)methyl]amino}-7-oxo-8-hydropteridin-8-yl)ethyl]acetamide] |
| 2720 nM | O=C(NCCn1c(=O)cnc2cnc(NCc3ccc(Cl)c(Cl)c3)nc21)c1ccccc1 [Compound 34, N-[2-(2-{[(3,4-dichlorophenyl)methyl]amino}-7-oxo(8-hydropteridin-8-yl))ethyl]benzamide] |
| 6120 nM | O=C(NCCn1c(=O)cnc2cnc(NCc3ccc(Cl)c(Cl)c3)nc21)c1ccsc1 [Compound 35, N-[2-(2-{[(3,4-dichlorophenyl)methyl]amino}-7-oxo(8-hydropteridin-8-yl))ethyl]-3-thienylcarboxamide] |
| 4060 nM | O=C(NCCn1c(=O)c(-c2cccnc2)nc2cnc(NCc3ccc(Cl)c(Cl)c3)nc21)c1ccccc1 [Compound 36, N-[2-(2-{[(3,4-dichlorophenyl)methyl]amino}-7-oxo-6-(3-pyridyl)(8-hydropteridin-8-yl))ethyl]benzamide] |
| 5010 nM | O=C(NCCn1c(=O)c(-c2cccnc2)nc2cnc(NCc3ccc(Cl)c(Cl)c3)nc21)c1ccsc1 [Compound 37, N-[2-(2-{[(3,4-dichlorophenyl)methyl]amino}-7-oxo-6-(3-pyridyl)(8-hydropteridin-8-yl))ethyl]-3-thienylcarboxamide] |
| 1180 nM | O=C(NCCn1c(=O)c(-c2cccnc2)nc2cnc(NCc3ccc(Cl)c(Cl)c3)nc21)c1ccc(F)cc1 [Compound 38, N-[2-(2-{[(3,4-dichlorophenyl)methyl]amino}-7-oxo-6-(3-pyridyl)(8-hydropteridin-8-yl))ethyl](4-fluorophenyl)carboxamide] |
| 2800 nM | COc1ccc(-c2nc3cnc(NCc4ccc(Cl)c(Cl)c4)nc3n(CCNC(=O)c3ccncc3)c2=O)cc1 [Compound 39, N-[2-(2-{[(3,4-dichlorophenyl)methyl]amino}-6-(4-methoxyphenyl)-7-oxo(8-hydropteridin-8-yl))ethyl]-4-pyridylcarboxamide] |
| 470 nM | C/C=C/C(=O)NCCn1c(=O)c(-c2ccc(OC)cc2)nc2cnc(NCc3ccc(Cl)c(Cl)c3)nc21 [Compound 40, (2E)—N-[2-(2-{[(3,4-dichlorophenyl)methyl]amino}-6-(4-methoxyphenyl)-7-oxo(8-hydropteridin-8-yl))ethyl]but-2-enamide] |
| 260 nM | COc1ccc(-c2nc3cnc(NCc4ccc(Cl)c(Cl)c4)nc3n(CCNC=O)c2=O)cc1 [Compound 41, N-[2-(2-{[(3,4-dichlorophenyl)methyl]amino}-6-(4-methoxyphenyl)-7-oxo-8-hydropteridin-8-yl)ethyl]carboxamide] |
| 2250 nM | COc1ccc(-c2nc3cnc(NCc4ccc(Cl)c(Cl)c4)nc3n(CCNC(=O)c3cccc(F)c3)c2=O)cc1 [Compound 42, N-[2-(2-{[(3,4-dichlorophenyl)methyl]amino}-6-(4-methoxyphenyl)-7-oxo(8-hydropteridin-8-yl))ethyl](3-fluorophenyl)carboxamide] |
